Measurements from patent US5342839A, “2-hydroxy-3-phenoxy-propyl-substituted piperazines, their preparation and use” (BASF Aktiengesellschaft, priority 1988, dated 1994).

Key:
[1] = Protection from acute cerebral hypoxia (survival time of mice in 3.5 parts O2/96.5 parts N2); format: in vivo; conditions: female mice, i.p., hypoxia 3.5 parts oxygen/96.5 parts nitrogen; for ED50: Mus musculus, ip, read-out: Test 1 ED 50% (dose which increases survival time of the animals by 50%), hypoxia
Procedure: 1. Protection from acute cerebral hypoxia
Female mice (weight 22-28 g) were placed in a glass tube (diameter 6 cm) through which was passed a mixture of 3.5 parts of oxygen and 96.5 parts of nitrogen. Untreated control animals survived 138 sec. on average in a glass tube of this type. The dose of active substances which, after intraperitoneal administration thereof, increases the survival time of the animals by 50% was determined.

[2] = Protection from global cerebral ischemia (survival time of mice after MgCl2); format: in vivo; conditions: female mice, i.p., before 0.1 ml of 80% strength MgCl2.6H2O solution; for ED50: Mus musculus, ip, read-out: Test 2 ED 50% (dose which increases survival time of the animals by 50%), global ischemia
Procedure: 2. Protection from global cerebral ischemia
Female mice (weight 24-27 g) received the active substance intraperitoneally before administration of 0.1 ml of an 80% strength solution (g/l) of MgCl2.6H2 O. Untreated control animals survive 24 sec. on average after administration of MgCl2. The dose of active substances which increases the survival time of the animals by 50% compared with placebo-treated animals was determined.

calcium channel = molecular target: T1, calcium channel (Cavia porcellus, UniProt A0A286X7I0); test: Affinity to the calcium channel: inhibition of specific (S)-3H-devapamil binding to guinea-pig skeletal muscle membranes; conditions: 1 nM (S)-3H-devapamil, pH 7.4, 20° C., 60 minutes, read-out: Test 3 Ki
T1 construct: guinea-pig skeletal muscle membranes; from tissue; host or cells: guinea-pig skeletal muscle membranes
T1 sequence (A0A286X7I0 1-1867): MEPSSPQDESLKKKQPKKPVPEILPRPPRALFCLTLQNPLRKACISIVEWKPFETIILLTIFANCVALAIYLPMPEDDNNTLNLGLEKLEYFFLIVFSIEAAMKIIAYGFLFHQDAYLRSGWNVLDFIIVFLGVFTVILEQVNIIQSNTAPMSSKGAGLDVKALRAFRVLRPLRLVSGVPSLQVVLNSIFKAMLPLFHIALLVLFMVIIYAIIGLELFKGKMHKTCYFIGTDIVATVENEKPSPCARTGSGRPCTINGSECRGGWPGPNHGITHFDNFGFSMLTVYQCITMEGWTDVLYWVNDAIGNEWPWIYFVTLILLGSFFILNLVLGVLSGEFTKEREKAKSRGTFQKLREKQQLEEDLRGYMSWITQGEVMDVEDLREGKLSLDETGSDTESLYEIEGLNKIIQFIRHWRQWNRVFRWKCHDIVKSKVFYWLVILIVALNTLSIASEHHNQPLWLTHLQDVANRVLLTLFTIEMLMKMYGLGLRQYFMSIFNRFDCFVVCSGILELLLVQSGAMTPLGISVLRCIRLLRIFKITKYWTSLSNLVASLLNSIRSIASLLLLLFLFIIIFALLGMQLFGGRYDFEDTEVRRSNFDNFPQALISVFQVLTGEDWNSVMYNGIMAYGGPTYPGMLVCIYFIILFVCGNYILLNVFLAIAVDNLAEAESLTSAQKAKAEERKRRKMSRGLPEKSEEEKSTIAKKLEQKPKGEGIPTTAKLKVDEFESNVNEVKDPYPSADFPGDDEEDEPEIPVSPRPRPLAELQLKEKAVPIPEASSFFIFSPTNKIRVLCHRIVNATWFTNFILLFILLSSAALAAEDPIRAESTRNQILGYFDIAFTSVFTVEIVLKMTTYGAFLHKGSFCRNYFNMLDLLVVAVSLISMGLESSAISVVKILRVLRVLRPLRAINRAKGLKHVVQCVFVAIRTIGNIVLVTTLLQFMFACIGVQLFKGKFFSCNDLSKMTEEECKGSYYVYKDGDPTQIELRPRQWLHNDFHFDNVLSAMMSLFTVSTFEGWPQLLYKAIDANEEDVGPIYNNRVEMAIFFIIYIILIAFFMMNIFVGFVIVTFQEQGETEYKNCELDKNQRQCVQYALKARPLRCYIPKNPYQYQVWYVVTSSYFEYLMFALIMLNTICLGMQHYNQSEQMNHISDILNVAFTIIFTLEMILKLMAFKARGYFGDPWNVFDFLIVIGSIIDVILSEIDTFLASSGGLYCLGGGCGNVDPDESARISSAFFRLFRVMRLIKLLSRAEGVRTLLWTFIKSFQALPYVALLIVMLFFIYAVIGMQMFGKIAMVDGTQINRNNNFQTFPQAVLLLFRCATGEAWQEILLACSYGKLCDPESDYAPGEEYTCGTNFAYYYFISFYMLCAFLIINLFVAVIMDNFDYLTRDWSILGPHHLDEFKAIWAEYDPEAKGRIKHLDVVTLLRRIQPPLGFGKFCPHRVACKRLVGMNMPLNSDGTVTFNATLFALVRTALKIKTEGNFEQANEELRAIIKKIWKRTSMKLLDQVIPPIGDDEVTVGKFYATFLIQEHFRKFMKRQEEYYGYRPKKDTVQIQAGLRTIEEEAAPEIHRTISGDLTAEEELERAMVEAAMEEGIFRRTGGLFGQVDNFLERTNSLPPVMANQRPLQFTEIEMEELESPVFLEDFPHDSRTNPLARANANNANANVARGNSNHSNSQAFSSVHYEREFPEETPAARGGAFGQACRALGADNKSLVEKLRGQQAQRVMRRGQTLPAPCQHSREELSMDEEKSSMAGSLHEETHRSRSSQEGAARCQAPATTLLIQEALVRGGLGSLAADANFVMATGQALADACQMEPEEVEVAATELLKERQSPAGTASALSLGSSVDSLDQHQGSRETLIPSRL
Procedure: 3. Affinity of the test substances to the calcium channel.
The affinity of the test substances to the calcium channel was determined by inhibition of the specific (S)-^3 H-devapamil binding to guinea-pig skeletal muscle membranes (FEBS Lett. 176, 371 (1984)). For this, the membranes were incubated with a fixed concentration of 1 nM (S)-^3 H-devapamil and increasing concentrations of test substance in 50 mM tris-HCl/0.1 mM phenylmethylsulfonyl fluoride, (pH 7.4) at 20° C. for 60 minutes. The non-specific binding was determined using 10^-6 M (S)-devapamil. The mixtures were then filtered through glass fiber filters, and the amount of (S)-^3 H-devapamil retained on the filter was determined by liquid scintillation measurement. The Ki values were determined by non-linear regression analysis.

| SMILES | ED50 [1] | ED50 [2] | Ki (calcium channel) | Test 1 ED 50% (dose which increases survival time of the animals by 50%), hypoxia [1] | Test 2 ED 50% (dose which increases survival time of the animals by 50%), global ischemia [2] |
| --- | --- | --- | --- | --- | --- |
| OC(COc1cccc(C(F)(F)F)c1)CN1CCN(CCCC(c2ccc(F)cc2)c2ccc(F)cc2)CC1 (centres unmarked) [Example 11, 1-[4,4-bis(4-fluorophenyl)butyl]-4-[2-hydroxy-3(3-trifluoromethylphenoxy)propyl]piperazine] | 4.9 mg/kg | 46 mg/kg | 8 nM | – | – |
| OC(COc1ccc(Cl)cc1)CN1CCN(CC(c2ccccc2)c2ccccc2)CC1 (centres unmarked) [Example 9, 1-[2,2-diphenylethyl]-4-[2-hydroxy-3-(4-chlorophenoxy)propyl]piperazine] | 7.3 mg/kg | 12 mg/kg | 30 nM | – | – |
| Fc1ccc(C(c2ccc(F)cc2)N2CCN(C/C=C/c3ccccc3)CC2)cc1 [flunarizine, reference compound] | > 100 mg/kg | 26.5 mg/kg | – | – | – |
| OC(COc1ccc(F)cc1)CN1CCN(CCCC(c2ccc(F)cc2)c2ccc(F)cc2)CC1 (single isomer, unassigned; (+)) [Example 30, (+)-1[4,4-bis(4-fluorophenyl)butyl]-4-[2-hydroxy-3(4-fluorophenoxy)propyl]piperazine] | – | 17 mg/kg | 10 nM | 4.0 mg/kg | – |
| OC(COc1ccc(Cl)cc1)CN1CCN(CCC(c2ccccc2)c2ccccc2)CC1 (centres unmarked) [Example 8, 1-[3,3-diphenylpropyl]-4-[2-hydroxy-3(4-chlorophenoxy)propyl]piperazine] | 5 mg/kg | 13 mg/kg | 160 nM | – | – |
| OC(COc1ccccc1)CN1CCN(CCC(c2ccccc2)c2ccccc2)CC1 (centres unmarked) [Example 7, 1-[3,3-diphenylpropyl]-4-[2-hydroxy-3-phenoxypropyl]piperazine] | 4.6 mg/kg | 10 mg/kg | 280 nM | – | – |
| OC(COc1ccc(F)cc1)CN1CCN(CCCC(c2ccc(F)cc2)c2ccc(F)cc2)CC1 (single isomer, unassigned; (-)) [Example 29, (-)-1[4,4-bis(4-fluorophenyl)butyl]-4-[2-hydroxy-3(4-fluorophenoxy)propyl]piperazine] | – | – | 9 nM | 1.6 mg/kg | 13 mg/kg |
| Cc1ccc(C(CCCN2CCN(CC(O)COc3ccc(F)cc3)CC2)c2ccc(C)cc2)cc1 (centres unmarked) [Example 24, 1-[4,4-bis(4-methylphenyl)butyl]-4-[2-hydroxy-3-(4-fluorophenoxy)propyl]piperazine] | 23 mg/kg | 40 mg/kg | 12 nM | – | – |
| OC(COc1ccccc1)CN1CCN(CCCC(c2ccccc2)c2ccccc2)CC1 (centres unmarked) [Example 4, 1-[4,4-diphenylbutyl]-4-[2-hydroxy-3-phenoxypropyl]-piperazine] | 6.6 mg/kg | 8.6 mg/kg | 18 nM | – | – |
| OC(COc1ccc(Cl)c(Cl)c1)CN1CCN(CCCC(c2ccccc2)c2ccccc2)CC1 (centres unmarked) [Example 23, 1-[4,4-diphenylbutyl]-4-[2-hydroxy-3-(3,4-dichlorophenoxy)propyl]piperazine] | 8.6 mg/kg | 41 mg/kg | 22 nM | – | – |
| OC(COc1ccc(F)cc1)CN1CCN(CCC(c2ccccc2)c2ccccc2)CC1 (single isomer, unassigned; (-)) [Example 31] | 4.1 mg/kg | 9.3 mg/kg | 149 nM | – | – |
| OC(COc1ccc(Cl)cc1)CN1CCN(CCCC(c2ccc(F)cc2)c2ccc(F)cc2)CC1 (centres unmarked) [Example 1, 1-[4,4-bis(4-Fluorophenyl)butyl]-4-[2-hydroxy-3(4-chlorophenoxy)propyl]piperazine] | 11 mg/kg | 27 mg/kg | 8 nM | – | – |
| OC(COc1ccc(Cl)c(Cl)c1)CN1CCN(CCCC(c2ccc(F)cc2)c2ccc(F)cc2)CC1 (centres unmarked) [Example 12, 1-[4,4-bis(4-fluorophenyl)butyl]-4-[2-hydroxy-3-(3,4-dichlorophenoxy)propyl]piperazine] | 4.7 mg/kg | 45 mg/kg | 16 nM | – | – |
| N#Cc1ccccc1OCC(O)CN1CCN(CCCC(c2ccc(F)cc2)c2ccc(F)cc2)CC1 (centres unmarked) [Example 17, 1-[4,4-bis(4-fluorophenyl)butyl]-4-[2-hydroxy-3-(2-cyanophenoxy)propyl]piperazine] | 16 mg/kg | 27 mg/kg | 10 nM | – | – |
| OC(CSc1ccc(F)cc1)CN1CCN(CCCC(c2ccc(F)cc2)c2ccc(F)cc2)CC1 (centres unmarked) [Example 34, 1-[4,4-bis(4-fluorophenyl)butyl]-4-[2-hydroxy-3-(4-fluoro-thiophenoxy)propyl]piperazine] | 9 mg/kg | 28 mg/kg | 9 nM | – | – |
| OC(COc1ccc(F)cc1)CN1CCN(CCC(c2ccccc2)c2ccccc2)CC1 (single isomer, unassigned; (+)) [Example 32] | – | – | 249 nM | 4.2 mg/kg | 9.5 mg/kg |
| Cc1cccc(C)c1NC(=O)CN1CCN(CCCC(c2ccc(F)cc2)c2ccc(F)cc2)CC1 [lidoflazine, reference compound] | 10 mg/kg | > 46 mg/kg | 20 nM | – | – |
| OC(COc1ccccc1Cl)CN1CCN(CCCC(c2ccc(F)cc2)c2ccc(F)cc2)CC1 (centres unmarked) [Example 13, 1-[4,4-bis(4-fluorophenyl)butyl]-4-[2-hydroxy-3-(c-chlorophenoxy)propyl]piperazine] | – | – | 10 nM | 6.9 mg/kg | 39 mg/kg |
| OC(CSc1ccccc1)CN1CCN(CCC(c2ccccc2)c2ccccc2)CC1 (centres unmarked) [Example 35] | 8.7 mg/kg | 14 mg/kg | 159 nM | – | – |
| O=[N+]([O-])c1ccc(OCC(O)CN2CCN(CCCC(c3ccc(F)cc3)c3ccc(F)cc3)CC2)cc1 (centres unmarked) [Example 16, 1-[4,4-bis(4-fluorophenyl)butyl]-4-[2-hydroxy-3-(4-nitrophenoxy)propyl]piperazine] | 5.5 mg/kg | 38 mg/kg | 11 nM | – | – |
| OC(COc1ccc(F)cc1)CN1CCN(CCCC(c2ccc(F)cc2)c2ccc(F)cc2)CC1 (centres unmarked) [Example 2, 1-[4,4-bis(4-fluorophenyl)butyl]-4-[2-hydroxy-3(4-fluorophenoxy)propyl]piperazine] | 11 mg/kg | 20 mg/kg | 9.1 nM | – | – |
| OC(COc1ccc(F)cc1)CN1CCCN(CCCC(c2ccc(F)cc2)c2ccc(F)cc2)CC1 (centres unmarked) [Example 33, 1-[4,4-bis(4-fluorophenyl)butyl]-4-(2-hydroxy-3(4-fluorophenoxy)propyl]homopiperazine] | 4.8 mg/kg | 31 mg/kg | 13 nM | – | – |
| OC(COc1ccc(F)cc1)CN1CCN(CCCC(c2ccccc2)c2ccccc2)CC1 (centres unmarked) [Example 22, 1-[4,4-diphenylbutyl]-4-[2-hydroxy-3-(4-fluorophenoxy)propyl]piperazine] | 6 mg/kg | 8.8 mg/kg | 15 nM | – | – |
| OC(COc1ccc(F)cc1)CN1CCN(CCCC(c2cccc(F)c2)c2cccc(F)c2)CC1 (centres unmarked) [Example 27, 1-[4,4-bis(3-fluorophenyl)butyl]-4-[2-hydroxy-3-(4-fluorophenoxy)propyl]piperazine] | 14 mg/kg | 29 mg/kg | 22 nM | – | – |
| OC(COc1ccccc1)CN1CCN(CCCC(c2ccc(F)cc2)c2ccc(F)cc2)CC1 (centres unmarked) [Example 3, 1-[4,4-bis(4-fluorophenyl)butyl]-4-[2-hydroxy-3-phenoxypropyl]piperazine] | 10 mg/kg | 13 mg/kg | 8 nM | – | – |
